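Step 1: Grow cells in 96-well plates. Step 2: Expose to compound for 48 hours at 5 concentrations. Step 3: Interpolate endpoints linearly; if unreached, use highest concentration. The concentration for 50% growth inhibition is given as GI50. TGI marks complete inhibition of growth.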
Assays:
Experiment in all cases: DTP human tumour cell line panel, 48 h
ACHN renal = system: ACHN renal
COLO 205 colon = system: COLO 205 colon
HL-60(TB) leukemia = system: HL-60(TB) leukemia
KM12 colon = system: KM12 colon
MOLT-4 leukemia = system: MOLT-4 leukemia
NCI-H23 lung = system: NCI-H23 lung
NCI-H522 lung = system: NCI-H522 lung
SK-MEL-5 melanoma = system: SK-MEL-5 melanoma
T-47D breast = system: T-47D breast
UACC-62 melanoma = system: UACC-62 melanoma

For `NC(=S)N=Nc1c(O)c2ccccc2c2ccccc12`, the GI50 (ACHN renal) was 8.07 µM, the TGI (ACHN renal) was greater than 100 µM and the GI50 (COLO 205 colon) was 22.8 µM. For the same molecule, the TGI (COLO 205 colon) was 73.6 µM, the GI50 (HL-60(TB) leukemia) was 20 µM and the TGI (HL-60(TB) leukemia) was 46 µM. The GI50 (KM12 colon) was 48.2 µM, the TGI (KM12 colon) was greater than 100 µM and the GI50 (MOLT-4 leukemia) was 33.7 µM. For the same molecule, the TGI (MOLT-4 leukemia) was greater than 73.5 µM, the GI50 (NCI-H23 lung) was 2.26 µM and the TGI (NCI-H23 lung) was 6.1 µM. For the same molecule, the GI50 (NCI-H522 lung) was 3.22 µM, the TGI (NCI-H522 lung) was 9.66 µM and the GI50 (SK-MEL-5 melanoma) was 1.41 µM. The TGI (SK-MEL-5 melanoma) was 2.9 µM, the GI50 (T-47D breast) was 14 µM and the TGI (T-47D breast) was greater than 100 µM. It also gave a GI50 (UACC-62 melanoma) of 1.69 µM and a TGI (UACC-62 melanoma) of 3.19 µM.
`Clc1ccccc1C(Nc1ncccn1)Nc1ncccn1` showed a TGI (ACHN renal) greater than 100 µM, a TGI (COLO 205 colon) greater than 100 µM and a TGI (HL-60(TB) leukemia) greater than 100 µM. For the same molecule, the TGI (KM12 colon) was greater than 100 µM, the TGI (MOLT-4 leukemia) was greater than 100 µM and the TGI (NCI-H23 lung) was greater than 100 µM. For the same molecule, the TGI (NCI-H522 lung) was greater than 100 µM, the TGI (SK-MEL-5 melanoma) was greater than 100 µM and the TGI (T-47D breast) was greater than 100 µM. It also gave a TGI (UACC-62 melanoma) greater than 100 µM.
With `Nc1nc(=O)n([C@@H]2CS[C@H](CO)O2)cc1F` the GI50 (ACHN renal) was greater than 100 µM, the TGI (ACHN renal) was greater than 100 µM and the GI50 (COLO 205 colon) was greater than 100 µM. The TGI (COLO 205 colon) was greater than 100 µM, the GI50 (HL-60(TB) leukemia) was greater than 100 µM and the TGI (HL-60(TB) leukemia) was greater than 100 µM. It also gave a GI50 (KM12 colon) greater than 100 µM, a TGI (KM12 colon) greater than 100 µM and a GI50 (MOLT-4 leukemia) greater than 100 µM. It also gave a TGI (MOLT-4 leukemia) greater than 100 µM, a GI50 (NCI-H23 lung) greater than 100 µM and a TGI (NCI-H23 lung) greater than 100 µM. It also gave a GI50 (NCI-H522 lung) greater than 100 µM, a TGI (NCI-H522 lung) greater than 100 µM and a GI50 (SK-MEL-5 melanoma) greater than 100 µM. For the same molecule, the TGI (SK-MEL-5 melanoma) was greater than 100 µM, the GI50 (T-47D breast) was greater than 100 µM and the TGI (T-47D breast) was greater than 100 µM. It also gave a GI50 (UACC-62 melanoma) greater than 100 µM and a TGI (UACC-62 melanoma) greater than 100 µM.
For `CCOC(=O)/C=C/C(=O)[C@H](CC(C)C)NC(=O)[C@H](Cc1ccccc1)NC(=O)OCc1ccccc1`, the GI50 (ACHN renal) was 2.36 µM, the TGI (ACHN renal) was 5.72 µM and the GI50 (COLO 205 colon) was 2.46 µM. For the same molecule, the TGI (COLO 205 colon) was 5.83 µM, the GI50 (HL-60(TB) leukemia) was 2.26 µM and the TGI (HL-60(TB) leukemia) was 9.67 µM. For the same molecule, the GI50 (KM12 colon) was 12.2 µM, the TGI (KM12 colon) was 27.8 µM and the GI50 (MOLT-4 leukemia) was 2.42 µM. For the same molecule, the TGI (MOLT-4 leukemia) was 9.25 µM, the GI50 (NCI-H23 lung) was 11.3 µM and the TGI (NCI-H23 lung) was 32.8 µM. For the same molecule, the GI50 (NCI-H522 lung) was 2.1 µM, the TGI (NCI-H522 lung) was 4.37 µM and the GI50 (SK-MEL-5 melanoma) was 16.4 µM. The TGI (SK-MEL-5 melanoma) was 31.1 µM, the GI50 (T-47D breast) was 2.1 µM and the TGI (T-47D breast) was 4.66 µM. The GI50 (UACC-62 melanoma) was 3.99 µM and the TGI (UACC-62 melanoma) was 16.5 µM.
In the case of `Cc1ccc(NCCN(C)C)c2c(=O)c3ccccc3sc12`, the GI50 (ACHN renal) is reported as 1.68 µM, the TGI (ACHN renal) is reported as 3.53 µM and the GI50 (COLO 205 colon) is reported as 1.29 µM. It also gave a TGI (COLO 205 colon) of 2.65 µM, a GI50 (HL-60(TB) leukemia) of 1.72 µM and a TGI (HL-60(TB) leukemia) of 4.15 µM. The GI50 (KM12 colon) was 1.66 µM, the TGI (KM12 colon) was 3.1 µM and the GI50 (MOLT-4 leukemia) was 1.13 µM. It also gave a TGI (MOLT-4 leukemia) of 4.33 µM, a GI50 (NCI-H23 lung) of 1.97 µM and a TGI (NCI-H23 lung) of 4.75 µM. It also gave a GI50 (NCI-H522 lung) of 1.89 µM, a TGI (NCI-H522 lung) of 5.38 µM and a GI50 (SK-MEL-5 melanoma) of 1.49 µM. It also gave a TGI (SK-MEL-5 melanoma) of 2.83 µM, a GI50 (T-47D breast) of 1.82 µM and a TGI (T-47D breast) of 4.96 µM. For the same molecule, the GI50 (UACC-62 melanoma) was 1.69 µM and the TGI (UACC-62 melanoma) was 3.29 µM.
With `COc1cc2c(=O)n(CCN(C)C)c3c4cc5c(cc4ccc3c2cc1OC)OCO5` the GI50 (ACHN renal) was 0.128 µM, the TGI (ACHN renal) was 0.363 µM and the GI50 (COLO 205 colon) was 0.169 µM. The TGI (COLO 205 colon) was 0.922 µM, the GI50 (HL-60(TB) leukemia) was 0.239 µM and the TGI (HL-60(TB) leukemia) was 3.74 µM. For the same molecule, the GI50 (KM12 colon) was 0.53 µM, the TGI (KM12 colon) was 4.04 µM and the GI50 (MOLT-4 leukemia) was 0.127 µM. It also gave a TGI (MOLT-4 leukemia) of 0.648 µM, a GI50 (NCI-H23 lung) of 0.212 µM and a TGI (NCI-H23 lung) of 1.38 µM. The GI50 (NCI-H522 lung) was 0.114 µM, the TGI (NCI-H522 lung) was 1.21 µM and the GI50 (SK-MEL-5 melanoma) was 0.152 µM. The TGI (SK-MEL-5 melanoma) was 0.559 µM, the GI50 (T-47D breast) was 0.111 µM and the TGI (T-47D breast) was 0.486 µM. The GI50 (UACC-62 melanoma) was 0.115 µM and the TGI (UACC-62 melanoma) was 0.435 µM.
`C#COc1cccc(Nc2ncnc3cc(NC(=O)[C@H](C)Cl)ccc23)c1` showed a GI50 (ACHN renal) of 3.05 µM, a TGI (ACHN renal) greater than 62.5 µM and a GI50 (COLO 205 colon) of 3.86 µM. It also gave a TGI (COLO 205 colon) greater than 62.5 µM, a GI50 (HL-60(TB) leukemia) of 1.1 µM and a TGI (HL-60(TB) leukemia) of 3.19 µM. The GI50 (KM12 colon) was 2.44 µM, the TGI (KM12 colon) was greater than 62.5 µM and the GI50 (MOLT-4 leukemia) was 2.42 µM. For the same molecule, the TGI (MOLT-4 leukemia) was greater than 62.5 µM, the GI50 (NCI-H23 lung) was 7.66 µM and the TGI (NCI-H23 lung) was greater than 62.5 µM. It also gave a GI50 (NCI-H522 lung) of 1.67 µM, a TGI (NCI-H522 lung) of 8.29 µM and a GI50 (SK-MEL-5 melanoma) of 1.39 µM. It also gave a TGI (SK-MEL-5 melanoma) of 3.54 µM, a GI50 (T-47D breast) of 19.3 µM and a TGI (T-47D breast) greater than 62.5 µM. The GI50 (UACC-62 melanoma) was 2.96 µM and the TGI (UACC-62 melanoma) was greater than 62.5 µM.
For `CN(C)c1ccc(C(c2ccc(Cl)cc2)c2ccc(N(C)C)cc2)cc1`, the TGI (ACHN renal) was greater than 100 µM, the TGI (COLO 205 colon) was greater than 100 µM and the TGI (HL-60(TB) leukemia) was greater than 100 µM. The TGI (KM12 colon) was greater than 100 µM, the TGI (MOLT-4 leukemia) was greater than 100 µM and the TGI (NCI-H23 lung) was greater than 100 µM. It also gave a TGI (NCI-H522 lung) greater than 100 µM, a TGI (SK-MEL-5 melanoma) greater than 100 µM and a TGI (T-47D breast) greater than 100 µM. It also gave a TGI (UACC-62 melanoma) greater than 100 µM.
`N#Cc1c(N)nc(NCc2ccccc2)c(C#N)c1-c1ccc(Cl)cc1Cl` showed a GI50 (ACHN renal) greater than 100 µM, a TGI (ACHN renal) greater than 100 µM and a GI50 (COLO 205 colon) greater than 100 µM. For the same molecule, the TGI (COLO 205 colon) was greater than 100 µM, the TGI (HL-60(TB) leukemia) was greater than 100 µM and the GI50 (KM12 colon) was greater than 84.5 µM. The TGI (KM12 colon) was greater than 100 µM, the GI50 (MOLT-4 leukemia) was 34.6 µM and the TGI (MOLT-4 leukemia) was greater than 100 µM. It also gave a GI50 (NCI-H23 lung) greater than 76.1 µM, a TGI (NCI-H23 lung) greater than 100 µM and a GI50 (NCI-H522 lung) greater than 68.7 µM. It also gave a TGI (NCI-H522 lung) greater than 100 µM, a GI50 (SK-MEL-5 melanoma) greater than 100 µM and a TGI (SK-MEL-5 melanoma) greater than 100 µM. For the same molecule, the GI50 (T-47D breast) was 72.3 µM, the TGI (T-47D breast) was greater than 100 µM and the GI50 (UACC-62 melanoma) was greater than 100 µM. For the same molecule, the TGI (UACC-62 melanoma) was greater than 100 µM.
Molecule `COc1ccccc1NS(=O)(=O)c1ccc2oc(SC(C)C)nc2c1` has a GI50 (ACHN renal) of 21 µM, a TGI (ACHN renal) greater than 100 µM and a GI50 (COLO 205 colon) of 18.6 µM. For the same molecule, the TGI (COLO 205 colon) was 40.1 µM, the GI50 (HL-60(TB) leukemia) was 6.09 µM and the TGI (HL-60(TB) leukemia) was 29.1 µM. The GI50 (KM12 colon) was 18.5 µM, the TGI (KM12 colon) was 49 µM and the GI50 (MOLT-4 leukemia) was 5.23 µM. The TGI (MOLT-4 leukemia) was 39.7 µM, the GI50 (NCI-H23 lung) was 8.66 µM and the TGI (NCI-H23 lung) was greater than 100 µM. For the same molecule, the GI50 (NCI-H522 lung) was 10.2 µM, the TGI (NCI-H522 lung) was 75.7 µM and the GI50 (SK-MEL-5 melanoma) was 3.99 µM. The TGI (SK-MEL-5 melanoma) was 17.4 µM, the GI50 (T-47D breast) was 8.98 µM and the TGI (T-47D breast) was greater than 100 µM. For the same molecule, the GI50 (UACC-62 melanoma) was 18.5 µM and the TGI (UACC-62 melanoma) was greater than 100 µM.
In the case of `CC(=O)c1cc(C(=O)c2ccc3c(c2)Sc2ccccc2N3)c2c(C)cccn12`, the GI50 (ACHN renal) is reported as 1.42 µM, the TGI (ACHN renal) is reported as greater than 100 µM and the GI50 (COLO 205 colon) is reported as 0.187 µM. For the same molecule, the TGI (COLO 205 colon) was 0.426 µM, the GI50 (HL-60(TB) leukemia) was 0.296 µM and the TGI (HL-60(TB) leukemia) was 0.977 µM. It also gave a GI50 (KM12 colon) of 0.307 µM, a TGI (KM12 colon) greater than 100 µM and a GI50 (MOLT-4 leukemia) of 0.556 µM. The TGI (MOLT-4 leukemia) was greater than 100 µM, the GI50 (NCI-H23 lung) was 0.611 µM and the TGI (NCI-H23 lung) was greater than 100 µM. The GI50 (NCI-H522 lung) was 0.0328 µM, the TGI (NCI-H522 lung) was 0.199 µM and the GI50 (SK-MEL-5 melanoma) was 0.259 µM. It also gave a TGI (SK-MEL-5 melanoma) of 4.56 µM, a GI50 (T-47D breast) of 0.314 µM and a TGI (T-47D breast) greater than 68.5 µM. The GI50 (UACC-62 melanoma) was 0.145 µM and the TGI (UACC-62 melanoma) was 38.1 µM.

— PubChem BioAssay (NCI)
